Data reported in ChEMBL document CHEMBL3991601, “The target landscape of clinical kinase drugs” (Science, 2017).
Activity calls are given as the source filed them.

Columns and labels:
[1] = target: Serine/threonine-protein kinase ATR (Homo sapiens, UniProt Q13535)
[2] = target: Serine/threonine-protein kinase N3 (Homo sapiens, UniProt Q6P5Z2)
[3] = target: Dual specificity protein kinase CLK4 (Homo sapiens, UniProt Q9HAZ1)
[4] = target: Serine/threonine-protein kinase 38-like (Homo sapiens, UniProt Q9Y2H1)
[5] = target: T1, Electron transfer flavoprotein subunit beta (Homo sapiens, UniProt P38117)
T1 sequence (P38117 whole entry): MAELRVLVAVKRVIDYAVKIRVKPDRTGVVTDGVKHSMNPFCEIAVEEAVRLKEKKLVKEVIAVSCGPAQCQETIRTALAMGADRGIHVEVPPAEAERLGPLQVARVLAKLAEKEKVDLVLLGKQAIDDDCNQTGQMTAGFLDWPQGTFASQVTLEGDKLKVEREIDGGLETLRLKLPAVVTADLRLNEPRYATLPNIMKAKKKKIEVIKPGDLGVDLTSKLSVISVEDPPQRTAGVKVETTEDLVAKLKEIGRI

[6] = target: T2, Long-chain-fatty-acid--CoA ligase 5 (Homo sapiens, UniProt Q9ULC5)
T2 sequence (Q9ULC5 whole entry): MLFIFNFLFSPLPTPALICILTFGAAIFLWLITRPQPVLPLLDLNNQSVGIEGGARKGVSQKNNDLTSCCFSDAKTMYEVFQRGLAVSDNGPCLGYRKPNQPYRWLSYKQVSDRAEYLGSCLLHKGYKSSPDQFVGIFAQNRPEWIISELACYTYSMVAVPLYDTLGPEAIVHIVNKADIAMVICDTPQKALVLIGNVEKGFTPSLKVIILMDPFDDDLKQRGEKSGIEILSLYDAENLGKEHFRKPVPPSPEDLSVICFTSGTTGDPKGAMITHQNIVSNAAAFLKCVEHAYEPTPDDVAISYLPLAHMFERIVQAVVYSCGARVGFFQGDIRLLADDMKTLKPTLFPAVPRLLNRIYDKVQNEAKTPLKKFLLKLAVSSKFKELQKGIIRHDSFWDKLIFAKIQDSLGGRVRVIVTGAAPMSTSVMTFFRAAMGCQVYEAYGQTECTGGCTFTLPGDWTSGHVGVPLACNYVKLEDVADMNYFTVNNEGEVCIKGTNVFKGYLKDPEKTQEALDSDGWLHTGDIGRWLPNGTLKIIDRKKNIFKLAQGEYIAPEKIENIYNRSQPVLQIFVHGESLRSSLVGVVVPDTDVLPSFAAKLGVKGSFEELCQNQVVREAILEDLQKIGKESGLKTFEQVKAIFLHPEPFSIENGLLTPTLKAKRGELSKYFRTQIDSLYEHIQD

[7] = target: T3, Dual specificity mitogen-activated protein kinase kinase 4 (Homo sapiens, UniProt P45985)
T3 sequence (P45985 whole entry): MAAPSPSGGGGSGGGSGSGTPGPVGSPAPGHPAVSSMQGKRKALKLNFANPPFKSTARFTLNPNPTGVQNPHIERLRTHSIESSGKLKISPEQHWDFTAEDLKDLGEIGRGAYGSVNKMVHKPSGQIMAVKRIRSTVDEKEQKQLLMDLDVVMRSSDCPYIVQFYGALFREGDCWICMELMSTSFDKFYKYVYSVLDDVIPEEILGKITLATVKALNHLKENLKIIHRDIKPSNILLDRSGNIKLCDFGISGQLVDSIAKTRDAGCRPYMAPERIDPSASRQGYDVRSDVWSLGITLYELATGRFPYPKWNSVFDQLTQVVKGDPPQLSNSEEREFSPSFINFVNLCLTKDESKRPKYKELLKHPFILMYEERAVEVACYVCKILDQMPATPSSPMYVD

[8] = target: Serine/threonine-protein kinase 24 (Homo sapiens, UniProt Q9Y6E0)
[9] = target: Choline-phosphate cytidylyltransferase A (Homo sapiens, UniProt P49585)
[10] = target: T4, Isoleucine--tRNA ligase, mitochondrial (Homo sapiens, UniProt Q9NSE4)
T4 sequence (Q9NSE4 whole entry): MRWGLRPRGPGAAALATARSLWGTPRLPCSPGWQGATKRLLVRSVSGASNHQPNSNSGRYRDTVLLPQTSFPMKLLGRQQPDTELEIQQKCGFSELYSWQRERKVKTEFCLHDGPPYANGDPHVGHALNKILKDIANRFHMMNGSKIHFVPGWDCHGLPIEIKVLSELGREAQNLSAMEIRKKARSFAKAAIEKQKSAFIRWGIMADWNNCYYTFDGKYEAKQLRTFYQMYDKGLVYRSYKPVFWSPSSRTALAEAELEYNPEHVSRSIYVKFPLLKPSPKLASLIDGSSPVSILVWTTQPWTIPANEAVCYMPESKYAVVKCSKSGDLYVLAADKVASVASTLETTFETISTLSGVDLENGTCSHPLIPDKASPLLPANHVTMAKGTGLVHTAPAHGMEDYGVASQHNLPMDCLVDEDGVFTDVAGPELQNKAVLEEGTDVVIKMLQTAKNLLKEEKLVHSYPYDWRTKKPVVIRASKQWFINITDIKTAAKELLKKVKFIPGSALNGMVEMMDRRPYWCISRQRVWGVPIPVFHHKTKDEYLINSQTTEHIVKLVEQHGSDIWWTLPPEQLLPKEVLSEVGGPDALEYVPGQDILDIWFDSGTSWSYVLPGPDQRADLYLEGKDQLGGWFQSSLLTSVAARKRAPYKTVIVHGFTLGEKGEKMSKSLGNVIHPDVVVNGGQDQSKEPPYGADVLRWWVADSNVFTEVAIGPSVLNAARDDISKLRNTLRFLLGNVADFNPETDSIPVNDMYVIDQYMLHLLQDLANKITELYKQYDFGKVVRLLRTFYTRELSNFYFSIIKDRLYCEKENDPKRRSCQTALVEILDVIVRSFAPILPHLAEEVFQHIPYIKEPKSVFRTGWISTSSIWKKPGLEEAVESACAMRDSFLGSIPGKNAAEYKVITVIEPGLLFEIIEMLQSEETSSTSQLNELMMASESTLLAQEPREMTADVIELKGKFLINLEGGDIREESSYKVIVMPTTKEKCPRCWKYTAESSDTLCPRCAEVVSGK

Measured: Kd
Also: in the data inactive means no Kd found up to 30 µM.

Choline-phosphate cytidylyltransferase A, sequence (P49585 whole entry): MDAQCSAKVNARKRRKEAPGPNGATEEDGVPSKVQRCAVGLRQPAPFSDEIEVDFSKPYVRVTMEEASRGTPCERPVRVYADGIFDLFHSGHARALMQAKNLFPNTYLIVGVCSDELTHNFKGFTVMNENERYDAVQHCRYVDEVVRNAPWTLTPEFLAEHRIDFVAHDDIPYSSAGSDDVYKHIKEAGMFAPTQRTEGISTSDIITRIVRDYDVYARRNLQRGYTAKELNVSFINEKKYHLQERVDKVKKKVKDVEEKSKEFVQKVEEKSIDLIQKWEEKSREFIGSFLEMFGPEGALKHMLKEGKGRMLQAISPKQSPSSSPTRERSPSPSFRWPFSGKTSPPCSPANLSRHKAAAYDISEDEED
Serine/threonine-protein kinase ATR, sequence (Q13535 whole entry): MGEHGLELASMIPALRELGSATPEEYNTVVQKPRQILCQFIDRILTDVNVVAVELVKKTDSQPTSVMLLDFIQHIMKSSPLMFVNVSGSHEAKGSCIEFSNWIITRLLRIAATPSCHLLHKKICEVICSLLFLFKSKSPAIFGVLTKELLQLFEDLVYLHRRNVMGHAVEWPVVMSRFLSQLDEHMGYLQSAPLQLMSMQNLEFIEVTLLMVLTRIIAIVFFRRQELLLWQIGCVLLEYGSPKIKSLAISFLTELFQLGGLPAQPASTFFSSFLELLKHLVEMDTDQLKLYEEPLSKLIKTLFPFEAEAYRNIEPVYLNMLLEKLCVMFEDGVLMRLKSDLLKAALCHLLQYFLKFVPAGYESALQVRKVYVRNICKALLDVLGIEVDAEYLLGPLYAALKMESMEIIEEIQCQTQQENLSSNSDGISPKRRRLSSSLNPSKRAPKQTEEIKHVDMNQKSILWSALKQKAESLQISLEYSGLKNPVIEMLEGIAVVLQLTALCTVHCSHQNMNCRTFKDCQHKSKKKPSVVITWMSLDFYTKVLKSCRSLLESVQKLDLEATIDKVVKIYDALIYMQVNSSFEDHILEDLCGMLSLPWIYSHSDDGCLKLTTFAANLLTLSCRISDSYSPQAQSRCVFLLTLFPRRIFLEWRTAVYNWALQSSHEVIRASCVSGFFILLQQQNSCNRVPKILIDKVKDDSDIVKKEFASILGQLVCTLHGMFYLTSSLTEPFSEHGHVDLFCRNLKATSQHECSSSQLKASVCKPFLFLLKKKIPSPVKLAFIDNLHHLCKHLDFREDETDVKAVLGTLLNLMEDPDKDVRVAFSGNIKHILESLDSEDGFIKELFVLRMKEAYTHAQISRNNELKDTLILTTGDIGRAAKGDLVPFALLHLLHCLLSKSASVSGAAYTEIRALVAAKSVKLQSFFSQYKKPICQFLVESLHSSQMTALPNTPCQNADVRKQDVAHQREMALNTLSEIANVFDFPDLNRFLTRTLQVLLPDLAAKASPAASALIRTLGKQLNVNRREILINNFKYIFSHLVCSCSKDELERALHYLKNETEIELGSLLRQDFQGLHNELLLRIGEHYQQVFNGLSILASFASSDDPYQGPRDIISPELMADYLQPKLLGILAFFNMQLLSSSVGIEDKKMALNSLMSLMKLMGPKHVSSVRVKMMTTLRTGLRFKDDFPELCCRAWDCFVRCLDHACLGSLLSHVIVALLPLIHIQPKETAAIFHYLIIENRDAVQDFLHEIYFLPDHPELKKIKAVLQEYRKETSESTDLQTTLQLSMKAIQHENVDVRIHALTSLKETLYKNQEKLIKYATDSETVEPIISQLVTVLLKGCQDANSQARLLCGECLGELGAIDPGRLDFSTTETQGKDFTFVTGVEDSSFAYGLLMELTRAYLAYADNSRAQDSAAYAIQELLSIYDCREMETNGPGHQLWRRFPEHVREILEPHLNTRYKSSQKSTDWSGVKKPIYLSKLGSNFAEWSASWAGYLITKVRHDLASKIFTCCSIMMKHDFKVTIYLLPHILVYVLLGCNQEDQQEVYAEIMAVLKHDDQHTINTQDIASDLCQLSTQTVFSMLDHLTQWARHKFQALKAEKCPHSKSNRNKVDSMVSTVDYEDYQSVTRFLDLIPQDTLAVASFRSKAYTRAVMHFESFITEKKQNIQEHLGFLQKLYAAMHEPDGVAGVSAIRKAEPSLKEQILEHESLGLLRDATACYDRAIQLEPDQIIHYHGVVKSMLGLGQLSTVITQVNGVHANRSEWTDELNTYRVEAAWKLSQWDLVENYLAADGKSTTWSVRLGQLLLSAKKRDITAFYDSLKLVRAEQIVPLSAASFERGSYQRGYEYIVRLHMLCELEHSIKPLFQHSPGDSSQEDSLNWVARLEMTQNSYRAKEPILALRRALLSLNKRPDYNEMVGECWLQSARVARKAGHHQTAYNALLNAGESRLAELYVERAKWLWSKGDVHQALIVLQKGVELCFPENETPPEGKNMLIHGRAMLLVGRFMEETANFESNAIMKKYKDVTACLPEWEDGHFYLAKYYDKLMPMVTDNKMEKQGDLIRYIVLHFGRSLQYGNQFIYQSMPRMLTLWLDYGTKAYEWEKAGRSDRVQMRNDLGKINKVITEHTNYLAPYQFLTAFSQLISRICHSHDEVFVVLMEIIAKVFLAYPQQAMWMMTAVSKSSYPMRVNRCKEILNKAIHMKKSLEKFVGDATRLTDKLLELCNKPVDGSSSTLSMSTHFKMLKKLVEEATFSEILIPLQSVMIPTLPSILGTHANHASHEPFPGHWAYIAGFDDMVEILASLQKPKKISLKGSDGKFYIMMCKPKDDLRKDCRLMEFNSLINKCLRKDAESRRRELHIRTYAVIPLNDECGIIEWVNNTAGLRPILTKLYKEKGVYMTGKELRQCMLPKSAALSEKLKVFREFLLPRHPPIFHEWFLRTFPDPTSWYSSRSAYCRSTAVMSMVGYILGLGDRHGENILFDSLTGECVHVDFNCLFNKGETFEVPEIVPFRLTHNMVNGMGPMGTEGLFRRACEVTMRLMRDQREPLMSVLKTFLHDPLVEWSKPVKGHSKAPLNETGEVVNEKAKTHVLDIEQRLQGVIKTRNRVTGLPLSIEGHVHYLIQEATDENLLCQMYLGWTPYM
Serine/threonine-protein kinase N3, sequence (Q6P5Z2 whole entry): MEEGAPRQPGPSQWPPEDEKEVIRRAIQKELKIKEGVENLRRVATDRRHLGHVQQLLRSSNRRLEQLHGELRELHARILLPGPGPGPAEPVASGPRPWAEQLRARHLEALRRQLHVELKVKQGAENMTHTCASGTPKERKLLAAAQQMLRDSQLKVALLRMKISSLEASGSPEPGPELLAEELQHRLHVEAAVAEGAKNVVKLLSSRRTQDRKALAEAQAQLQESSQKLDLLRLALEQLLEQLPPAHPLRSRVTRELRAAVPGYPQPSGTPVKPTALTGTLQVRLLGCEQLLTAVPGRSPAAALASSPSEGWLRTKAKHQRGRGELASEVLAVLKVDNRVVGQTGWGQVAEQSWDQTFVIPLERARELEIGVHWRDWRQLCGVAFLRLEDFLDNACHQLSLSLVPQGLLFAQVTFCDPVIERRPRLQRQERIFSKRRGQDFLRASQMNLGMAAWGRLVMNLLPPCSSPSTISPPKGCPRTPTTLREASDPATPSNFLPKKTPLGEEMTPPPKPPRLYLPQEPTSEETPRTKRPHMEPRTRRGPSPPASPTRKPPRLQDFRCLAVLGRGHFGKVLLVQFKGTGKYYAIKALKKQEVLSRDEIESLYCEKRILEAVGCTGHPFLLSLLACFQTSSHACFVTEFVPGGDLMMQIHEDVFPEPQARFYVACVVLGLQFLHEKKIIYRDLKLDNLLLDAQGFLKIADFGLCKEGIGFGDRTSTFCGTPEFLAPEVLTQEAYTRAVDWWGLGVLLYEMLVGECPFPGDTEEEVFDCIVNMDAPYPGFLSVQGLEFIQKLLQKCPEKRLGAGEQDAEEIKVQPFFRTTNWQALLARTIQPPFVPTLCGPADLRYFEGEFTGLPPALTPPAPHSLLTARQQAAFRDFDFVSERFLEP
Serine/threonine-protein kinase 24, sequence (Q9Y6E0 whole entry): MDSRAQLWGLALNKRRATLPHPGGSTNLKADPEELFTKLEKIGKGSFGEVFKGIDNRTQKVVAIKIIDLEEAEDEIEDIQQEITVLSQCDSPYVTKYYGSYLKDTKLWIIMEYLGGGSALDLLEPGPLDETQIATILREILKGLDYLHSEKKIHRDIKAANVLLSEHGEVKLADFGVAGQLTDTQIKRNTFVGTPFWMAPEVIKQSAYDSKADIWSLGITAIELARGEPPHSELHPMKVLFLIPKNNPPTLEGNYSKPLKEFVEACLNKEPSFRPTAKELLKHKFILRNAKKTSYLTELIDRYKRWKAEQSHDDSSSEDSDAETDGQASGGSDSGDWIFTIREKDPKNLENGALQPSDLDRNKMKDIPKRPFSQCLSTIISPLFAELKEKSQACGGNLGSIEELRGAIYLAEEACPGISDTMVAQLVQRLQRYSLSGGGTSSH
Serine/threonine-protein kinase 38-like, sequence (Q9Y2H1 whole entry): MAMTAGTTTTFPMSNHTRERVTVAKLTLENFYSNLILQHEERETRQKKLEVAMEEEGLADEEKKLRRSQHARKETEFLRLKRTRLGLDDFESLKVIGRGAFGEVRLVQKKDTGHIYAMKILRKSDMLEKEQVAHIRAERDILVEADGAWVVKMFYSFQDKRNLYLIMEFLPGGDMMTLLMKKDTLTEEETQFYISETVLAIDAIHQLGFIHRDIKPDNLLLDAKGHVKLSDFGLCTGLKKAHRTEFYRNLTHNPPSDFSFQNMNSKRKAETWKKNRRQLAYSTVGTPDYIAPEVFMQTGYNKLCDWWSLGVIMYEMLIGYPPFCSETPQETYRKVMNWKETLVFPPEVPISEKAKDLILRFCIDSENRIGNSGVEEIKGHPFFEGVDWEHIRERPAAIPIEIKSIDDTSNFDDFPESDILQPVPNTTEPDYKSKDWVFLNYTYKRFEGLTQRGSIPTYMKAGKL

Cn1cnc2c(F)c(Nc3ccc(Br)cc3F)c(C(=O)NOCCO)cc21 [BINIMETINIB]
inactive: [1] > 30 µM | [2] > 30 µM | [3] > 30 µM | [4] > 30 µM | [5] > 30 µM | [6] > 30 µM | [7] > 30 µM | [8] > 30 µM | [9] > 30 µM

O=C(Nc1nc2cccc(-c3ccc(CN4CCS(=O)(=O)CC4)cc3)n2n1)C1CC1 [FILGOTINIB]
inactive: [1] > 30 µM | [3] > 30 µM | [4] > 30 µM | [5] > 30 µM | [7] > 30 µM | [8] > 30 µM | [9] > 30 µM | [10] > 30 µM

CO[C@H]1C[C@@H]2CC[C@@H](C)[C@@](O)(O2)C(=O)C(=O)N2CCCC[C@H]2C(=O)O[C@H]([C@H](C)C[C@@H]2CC[C@@H](OC(=O)C(C)(CO)CO)[C@H](OC)C2)CC(=O)[C@H](C)/C=C(\C)[C@@H](O)[C@@H](OC)C(=O)[C@H](C)C[C@H](C)/C=C/C=C/C=C/1C [TEMSIROLIMUS]
inactive: [1] > 30 µM | [2] > 30 µM | [3] > 30 µM | [4] > 30 µM | [5] > 30 µM | [6] > 30 µM | [7] > 30 µM | [8] > 30 µM | [9] > 30 µM | [10] > 30 µM

O=C(Cc1ccc(-c2ccc(OCCN3CCOCC3)cc2)cn1)NCc1ccccc1 [TIRBANIBULIN]
inactive: [3] > 30 µM | [4] > 30 µM | [5] > 30 µM | [6] > 30 µM | [7] > 30 µM | [8] > 30 µM | [9] > 30 µM | [10] > 30 µM

C[C@@H](N)c1ccc(C(=O)Nc2ccnc3[nH]ccc23)cc1 [Y-39983]
inactive: [1] > 30 µM | [2] > 30 µM | [3] > 30 µM | [4] > 30 µM | [6] > 30 µM | [7] > 30 µM | [8] > 30 µM | [9] > 30 µM | [10] > 30 µM
